Measured values published in patent US7566712B2, “Biaryl piperazinyl-pyridine analogues” (Neurogen Corporation, priority 2003, dated 2009).

Target: T1, human capsaicin receptor (Homo sapiens, UniProt Q8NER1)
T1 construct: pBK-CMV expression construct encoding the full length human capsaicin receptor; expressed in transfected cells
Assay: Calcium mobilization assay, determination of antagonist activity (Example 6)
Assay type: cell-based
Details: determined as described in Example 6 (calcium mobilization, antagonist activity); Table II
How it was run: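 HEK293 clonal lines stably expressing full-length human capsaicin receptor, loaded with Fluo-3 AM in KRH buffer pH 7.4, 1–2 h at 37 °C. Compounds (1–5 μM final) preincubated 0.5–6 h at room temperature, then capsaicin at its EC50 added. FLIPR/Fluoroskan calcium signal; IC50 as 50% decrease of capsaicin response.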

T1 sequence (Q8NER1 whole entry): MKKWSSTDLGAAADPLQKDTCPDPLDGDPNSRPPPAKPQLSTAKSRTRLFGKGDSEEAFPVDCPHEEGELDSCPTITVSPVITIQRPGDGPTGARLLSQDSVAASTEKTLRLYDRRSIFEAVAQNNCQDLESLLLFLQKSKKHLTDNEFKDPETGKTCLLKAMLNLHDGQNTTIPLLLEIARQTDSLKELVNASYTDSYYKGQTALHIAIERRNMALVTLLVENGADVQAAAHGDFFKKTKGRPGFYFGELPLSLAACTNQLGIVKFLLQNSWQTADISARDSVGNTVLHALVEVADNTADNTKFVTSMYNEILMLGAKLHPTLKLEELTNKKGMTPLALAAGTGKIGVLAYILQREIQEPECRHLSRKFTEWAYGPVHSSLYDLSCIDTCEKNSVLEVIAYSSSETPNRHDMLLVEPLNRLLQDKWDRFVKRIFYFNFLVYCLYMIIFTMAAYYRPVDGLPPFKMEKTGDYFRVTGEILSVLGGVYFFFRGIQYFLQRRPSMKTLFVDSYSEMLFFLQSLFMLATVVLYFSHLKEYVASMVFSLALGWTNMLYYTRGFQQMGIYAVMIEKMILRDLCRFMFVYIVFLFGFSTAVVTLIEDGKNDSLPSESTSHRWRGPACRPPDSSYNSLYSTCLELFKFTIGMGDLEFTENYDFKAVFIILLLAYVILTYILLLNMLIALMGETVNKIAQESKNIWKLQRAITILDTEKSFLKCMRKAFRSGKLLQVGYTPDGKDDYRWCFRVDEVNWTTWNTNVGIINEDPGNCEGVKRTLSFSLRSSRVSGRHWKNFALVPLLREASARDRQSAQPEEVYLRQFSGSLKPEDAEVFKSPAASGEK

| SMILES | IC50 |
| --- | --- |
| Cc1cc(-c2cc(N3CCN(c4ncccc4C(F)(F)F)CC3)nc(N3CCN(C(C)C)CC3)n2)ccc1F [Example 716, 4-(4-fluoro-3-methylphenyl)-2-(4-isopropylpiperazin-1-yl)-6-{4-[3-(trifluoromethyl)pyridin-2-yl]piperazin-1-yl}pyrimidine] | ≤ 1000 nM |
| Cc1cc(-c2cc(N3CCN(c4ncccc4Cl)C[C@H]3C)nc(N3CCCC3)n2)ccc1F [Example 718, 4-[(2R)-4-(3-chloropyridin-2-yl)-2-methylpiperazin-1-yl]-6-(4-fluoro-3-methylphenyl)-2-pyrrolidin-1-ylpyrimidine] | ≤ 1000 nM |
| Cc1cc(-c2cc(N3CCN(c4ncccc4Cl)C[C@H]3C)nc(N3CCCC3C)n2)ccc1F (stereo partly drawn) [Example 719, 4-[(2R)-4-(3-chloropyridin-2-yl)-2-methylpiperazin-1-yl]-6-(4-fluoro-3-methylphenyl)-2-(2-methylpyrrolidin-1-yl)pyrimidine] | ≤ 1000 nM |
| Cc1cc(-c2cc(N3CCN(c4ncccc4Cl)C[C@H]3C)nc(N3CCCCC3)n2)ccc1F [Example 720, 4-[(2R)-4-(3-chloropyridin-2-yl)-2-methylpiperazin-1-yl]-6-(4-fluoro-3-methylphenyl)-2-piperidin-1-ylpyrimidine] | ≤ 1000 nM |
| CCN(CC)c1nc(-c2ccc(F)c(Cl)c2)cc(N2CCN(c3ncccc3Cl)CC2)n1 [Example 724, 4-(3-chloro-4-fluorophenyl)-6-[4-(3-chloropyridin-2-yl)piperazin-1-yl]-N,N-diethylpyrimidin-2-amine] | ≤ 1000 nM |
| COC[C@@H]1CCCN1c1nc(-c2ccc(F)c(C)c2)cc(N2CCN(c3ncccc3Cl)CC2)n1 [Example 726] | ≤ 1000 nM |
| COC[C@H]1CCCN1c1nc(-c2ccc(F)c(C)c2)cc(N2CCN(c3ncccc3Cl)C[C@H]2C)n1 [Example 728, 4-[(2R)-4-(3-chloropyridin-2-yl)-2-methylpiperazin-1-yl]-6-(4-fluoro-3-methylphenyl)-2-[(2R)-2-(methoxymethyl)pyrrolidin-1-yl]pyrimidine] | ≤ 1000 nM |
| COC[C@@H]1CCCN1c1nc(-c2ccc(F)c(C)c2)cc(N2CCN(c3ncccc3Cl)C[C@H]2C)n1 [Example 729, 4-[(2R)-4-(3-chloropyridin-2-yl)-2-methylpiperazin-1-yl]-6-(4-fluoro-3-methylphenyl)-2-[(2S)-2-(methoxymethyl)pyrrolidin-1-yl]pyrimidine] | ≤ 1000 nM |
| Cc1cc(-c2cc(N3CCN(c4ncccc4Cl)CC3)nc(N(C)C(C)C)n2)ccc1F [Example 730, 4-[4-(3-chloropyridin-2-yl)piperazin-1-yl]-6-(4-fluoro-3-methylphenyl)-N-isopropyl-N-methylpyrimidin-2-amine] | ≤ 1000 nM |
| CC1CCCN1c1nc(-c2ccc(F)c(Cl)c2)cc(N2CCN(c3ncccc3Cl)C[C@H]2C)n1 (stereo partly drawn) [Example 732, 4-(3-chloro-4-fluorophenyl)-6-[(2R)-4-(3-chloropyridin-2-yl)-2-methylpiperazin-1-yl]-2-(2-methylpyrrolidin-1-yl)pyrimidine] | ≤ 1000 nM |
| COC[C@@H]1CCCN1c1nc(-c2ccc(F)c(Cl)c2)cc(N2CCN(c3ncccc3Cl)C[C@H]2C)n1 [Example 735, 4-(3-chloro-4-fluorophenyl)-6-[(2R)-4-(3-chloropyridin-2-yl)-2-methylpiperazin-1-yl]-2-[(2S)-2-(methoxymethyl)pyrrolidin-1-yl]pyrimidine] | ≤ 1000 nM |
| Cc1cc(-c2cc(N3CCN(c4ncccc4C(F)(F)F)CC3)nc(N(C)C3CC3)n2)ccc1F [Example 736, N-cyclopropyl-4-(4-fluoro-3-methylphenyl)-N-methyl-6-{4-[3-(trifluoromethyl)pyridin-2-yl]piperazin-1-yl}pyrimidin-2-amine] | ≤ 1000 nM |
| COCCN(C)c1nc(-c2ccc(F)c(C)c2)cc(N2CCN(c3ncccc3C(F)(F)F)CC2)n1 [Example 737, 4-(4-fluoro-3-methylphenyl)-N-(2-methoxyethyl)-N-methyl-6-{4-[3-(trifluoromethyl)pyridin-2-yl]piperazin-1-yl}pyrimid in-2-amine] | ≤ 1000 nM |
| Cc1cc(-c2cc(N3CCN(c4ncccc4C(F)(F)F)CC3)nc(N3C(C)C=CC3C)n2)ccc1F (centres unmarked) [Example 739, 2-(2,5-dimethyl-2,5-dihydro-1H-pyrrol-1-yl)-4-(4-fluoro-3-methylphenyl)-6-{4-[3-(trifluoromethyl)pyridin-2-yl]piperazin-1-yl}pyrimidine] | ≤ 1000 nM |
| CC1CC(=O)N1c1nc(-c2ccc(F)c(Cl)c2)cc(N2CCN(c3ncccc3C(F)(F)F)CC2)n1 (centres unmarked) [Example 740, 1-(4-(3-chloro-4-fluorophenyl)-6-{4-[3-(trifluoromethyl)pyridin-2-yl]piperazin-1-yl}pyrimidin-2-yl)-4-methylazetidin-2-one] | ≤ 1000 nM |
| CC1CCCCN1c1nc(-c2ccc(F)c(Cl)c2)cc(N2CCN(c3ncccc3Cl)C[C@H]2C)n1 (stereo partly drawn) [Example 741, 4-(3-chloro-4-fluorophenyl)-6-[(2R)-4-(3-chloropyridin-2-yl)-2-methylpiperazin-1-yl]-2-(2-methytpiperidin-1-yl)pyrimidine] | ≤ 1000 nM |
| Cc1cc(-c2cc(N3CCN(c4ncccc4Cl)CC3)nc(N3CCOC(C)(C)C3)n2)ccc1F [Example 743, 4-{4-[4-(3-chloropyridin-2-yl)piperazin-1-yl]-6-(4-fluoro-3-methylphenyl)pyrimidin-2-yl]-2,2-dimethylmorpholine] | ≤ 1000 nM |

Now from value to compound:

| IC50 | SMILES |
| --- | --- |
| ≤ 1000 nM | Fc1ccc(-c2cc(N3CCN(c4ncccc4Cl)CC3)nc(N3CCCC3)n2)cc1Cl [Example 713, 4-(3-chloro-4-fluorophenyl)-6-[4-(3-chloropyridin-2-yl)piperazin-1-yl]-2-pyrrolidin-1-ylpyrimidine] |
| ≤ 1000 nM | CC1CCCN1c1nc(-c2ccc(F)c(Cl)c2)cc(N2CCN(c3ncccc3Cl)CC2)n1 (centres unmarked) [Example 714, 4-(3-chloro-4-fluorophenyl)-6-[4-(3-chloropyridin-2-yl)piperazin-1-yl]2-(2-methylpyrrolidin-1-yl)pyrimidine] |
| ≤ 1000 nM | Fc1ccc(-c2cc(N3CCN(c4ncccc4Cl)CC3)nc(N3CCCCC3)n2)cc1Cl [Example 715, 4-(3-chloro-4-fluorophenyl)-6-[4-(3-chloropyridin-2-yl)piperazin-1-yl]-2-piperidin-1-ylpyrimidine] |
| ≤ 1000 nM | Cc1cc(-c2cc(N3CCN(c4ncccc4Cl)CC3)nc(N3CCCCC3)n2)ccc1F [Example 717, 4-[4-(3-chloropyridin-2-yl)piperazin-1-yl]-6-(4-fluoro-3-methylphenyl)-2-piperidin-1-ylpyrimidine] |
| ≤ 1000 nM | CCN(CC)c1nc(-c2ccc(F)c(C)c2)cc(N2CCN(c3ncccc3Cl)CC2)n1 [Example 721, 4-[4-(3-chloropyridin-2-yl)piperazin-1-yl]-N,N-diethyl-6-(4-fluoro-3-methylphenyl)pyrimidin-2-amine] |
| ≤ 1000 nM | C[C@@H]1CN(c2ncccc2Cl)CCN1c1cc(-c2ccc(F)c(Cl)c2)nc(SCc2ccccc2)n1 [Example 722, 2-(benzylthio)-4-(3-chloro-4-fluorophenyl)-6-[(2R)-4-(3-chloropyridin-2-yl)-2-methylpiperazin-1-yl]pyrimidine] |
| ≤ 1000 nM | C[C@@H]1CN(c2ncccc2Cl)CCN1c1cc(-c2ccc(F)c(Cl)c2)nc(S(=O)(=O)Cc2ccccc2)n1 [Example 723, 2-(benzylsulfonyl)-4-(3-chloro-4-fluorophenyl)-6-[(2R)-4-(3-chloropyridin-2-yl)-2-methylpiperazin-1-yl]pyrimidine] |
| ≤ 1000 nM | CC(C)N(C)c1nc(-c2ccc(F)c(Cl)c2)cc(N2CCN(c3ncccc3Cl)CC2)n1 [Example 725, 4-(3-chloro-4-fluorophenyl)-6-[4-(3-chloropyridin-2-yl)piperazin-1-yl]-N-isopropyl-N-methylpyrimidin-2-amine] |
| ≤ 1000 nM | C[C@@H]1CN(c2ncccc2Cl)CCN1c1cc(-c2ccc(F)c(Cl)c2)nc(N2CCCC2)n1 [Example 731, 4-(3-chloro-4-fluorophenyl)-6-[(2R)-4-(3-chloropyridin-2-yl)-2-methylpiperazin-1-yl]-2-pyrrolidin-1-ylpyrimidine] |
| ≤ 1000 nM | COC[C@H]1CCCN1c1nc(-c2ccc(F)c(Cl)c2)cc(N2CCN(c3ncccc3Cl)C[C@H]2C)n1 [Example 733, 4-(3-chloro-4-fluorophenyl)-6-[(2R)-4-(3-chloropyridin-2-yl)-2-methylpiperazin-1-yl]-2-[(2R)-2-(methoxymethyl)pyrrolidin-1-yl]pyrimidine] |
| ≤ 1000 nM | C[C@@H]1CN(c2ncccc2Cl)CCN1c1cc(-c2ccc(F)c(Cl)c2)nc(N2CCCCC2)n1 [Example 734, 4-(3-chloro-4-fluorophenyl)-6-[(2R)-4-(3-chloropyridin-2-yl)-2-methylpiperazin-1-yl]-2-piperidin-1-ylpyrimidine] |
| ≤ 1000 nM | CCN(C)c1nc(-c2ccc(F)c(C)c2)cc(N2CCN(c3ncccc3C(F)(F)F)CC2)n1 [Example 738, N-ethyl-4-(4-fluoro-3-methylphenyl)-N-methyl-6-{4-[3-(trifluoromethyl)pyridin-2-yl]piperazin-1-yl)pyrimidin-2-amine] |
| ≤ 1000 nM | C[C@@H]1CN(c2ncccc2Cl)CCN1c1cc(-c2ccc(F)c(Cl)c2)nc(N2CCOC(C)(C)C2)n1 [Example 742, 4-{4-(3-chloro-4-fluorophenyl)-6-[(2R)-4-(3-chloropyridin-2-yl)-2-methylpiperazin-1-yl]pyrimidin-2-yl}-2,2-dimethylmorpholine] |
| ≤ 1000 nM | Cc1cc(-c2cc(N3CCN(c4ncccc4Cl)CC3)nc(N3CCCCC3C)n2)ccc1F (centres unmarked) [Example 744, 4-[4-(3-chloropyridin-2-yl)piperazin-1-yl]-6-(4-fluoro-3-methylphenyl)-2-(2-methylpiperidin-1-yl)pyrimidine] |
| ≤ 1000 nM | Cc1cc(-c2cc(N3CCN(c4ncccc4Cl)C[C@H]3C)nc(N3CCCCC3C)n2)ccc1F (stereo partly drawn) [Example 745, 4-[(2R)-4-(3-chloropyridin-2-yl)-2-methylpiperazin-1-yl]-6-(4-fluoro-3-methylphenyl)-2-(2-methylpiperidin-1-yl)pyrimidine] |
